Measured values from patent publication US20260042764A1, “COMPOSITIONS AND METHODS FOR INHIBITION OF KRAS” (TheRas, Inc., priority 2022, published 2026).

These compounds were tested against T1, Avi-KRAS G12D (1-169) GppNHp/RAF1 RBD-3xFLAG (52-151) (Homo sapiens, UniProt P01116, G12D) (assay: Raf1-KRAS G12D-GppNHP disruption HTRF assay (Biological Example 1)). Conditions: KRAS G12D-GppNHp/RAF1 RBD HTRF.
T1 construct: Avi-KRAS G12D (1-169)
T1 sequence (P01116 1-169 isoform P01116-2 G12D): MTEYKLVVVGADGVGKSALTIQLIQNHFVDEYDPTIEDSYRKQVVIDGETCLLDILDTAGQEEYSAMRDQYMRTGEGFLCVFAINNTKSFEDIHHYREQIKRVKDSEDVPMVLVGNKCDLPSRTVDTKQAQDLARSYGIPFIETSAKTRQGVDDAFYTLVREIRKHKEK
Assay type: binding
Procedure, shortened: (§1)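 Percent activity versus DMSO (100%) was derived from HTRF signal after KRAS–RAF1 RBD protein mix was incubated 1 h at room temperature with shaking and detection reagents were added for a further 1 h.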
For `N#Cc1c(N)sc2c(F)ccc(-c3c(C(F)(F)F)cc4c(N5CC6CC(C5)O6)nc(OC[C@@]56CCCN5C[C@]5(CC5(F)F)C6)nc4c3F)c12` [Compound 365], the IC50 was 100 to 1000 nM.
With `N#Cc1c(N)sc2c(F)ccc(-c3c(C(F)(F)F)cc4c(N5CC6CC(C5)O6)nc(OC[C@@]56CCCN5C[C@@]5(CC5(F)F)C6)nc4c3F)c12` [Compound 366] the IC50 was 100 to 1000 nM.
Compound `N#Cc1c(N)sc2c(F)ccc(-c3c(C(F)(F)F)cc4c(N5C6COCC5CC(O)C6)nc(OC[C@@]56CCCN5C[C@H](F)C6)nc4c3F)c12` (stereo partly drawn) [Compound 374] has an IC50 of 100 to 1000 nM.
`N#Cc1c(N)sc2c(F)ccc(-c3c(C(F)(F)F)cc4c(N5[C@@H]6CO[C@H]7C6OC[C@H]75)nc(OC[C@@]56CCCN5C[C@H](F)C6)nc4c3F)c12` [Compound 382] was tested, and the IC50 was 100 to 1000 nM.
With `N#Cc1cc2n(n1)CCN(c1nc(OC[C@@]34CCCN3C[C@H](F)C4)nc3c(F)c(-c4ccc(F)c5sc(N)c(C#N)c45)c(C(F)(F)F)cc13)C2` [Compound 393] the IC50 was 1000 to 10000 nM.
With `CCN(c1nc(OC[C@@]23CCCN2C[C@H](F)C3)nc2c(F)c(-c3ccc(F)c4sc(N)c(C#N)c34)c(C(F)(F)F)cc12)[C@H]1CCN(C(=O)N(C)C)C1` [Compound 395] the IC50 was < 100 nM.

The compounds below were run against T2, Avi-KRAS G12R (1-169) GppNHp/RAF1 RBD-3xFLAG (52-151) (Homo sapiens, UniProt P01116, G12R) (assay: Raf1-KRAS G12R-GppNHP disruption HTRF assay (Biological Example 1)). Conditions: KRAS G12R-GppNHp/RAF1 RBD HTRF.
T2 construct: Avi-KRAS G12R (1-169)
T2 sequence (P01116 1-169 isoform P01116-2 G12R): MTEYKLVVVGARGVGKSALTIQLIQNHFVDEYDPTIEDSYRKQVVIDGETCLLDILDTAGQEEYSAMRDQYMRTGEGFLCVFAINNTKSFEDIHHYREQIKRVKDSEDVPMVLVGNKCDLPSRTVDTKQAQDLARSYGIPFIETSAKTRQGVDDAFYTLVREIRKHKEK
Assay type: binding
Procedure, shortened: as §1
For `N#Cc1c(N)sc2c(F)ccc(-c3c(C(F)(F)F)cc4c(N5CC6CC(C5)O6)nc(OC[C@@]56CCCN5C[C@]5(CC5(F)F)C6)nc4c3F)c12` [Compound 365], the IC50 was 100 to 1000 nM.
`N#Cc1c(N)sc2c(F)ccc(-c3c(C(F)(F)F)cc4c(N5CC6CC(C5)O6)nc(OC[C@@]56CCCN5C[C@@]5(CC5(F)F)C6)nc4c3F)c12` [Compound 366] showed an IC50 of 1000 to 10000 nM.
`N#Cc1c(N)sc2c(F)ccc(-c3c(C(F)(F)F)cc4c(N5C6COCC5CC(O)C6)nc(OC[C@@]56CCCN5C[C@H](F)C6)nc4c3F)c12` (stereo partly drawn) [Compound 374] gave an IC50 of 1000 to 10000 nM.
Compound `N#Cc1c(N)sc2c(F)ccc(-c3c(C(F)(F)F)cc4c(N5[C@@H]6CO[C@H]7C6OC[C@H]75)nc(OC[C@@]56CCCN5C[C@H](F)C6)nc4c3F)c12` [Compound 382] has an IC50 of 1000 to 10000 nM.
For `N#Cc1cc2n(n1)CCN(c1nc(OC[C@@]34CCCN3C[C@H](F)C4)nc3c(F)c(-c4ccc(F)c5sc(N)c(C#N)c45)c(C(F)(F)F)cc13)C2` [Compound 393], the IC50 was > 10000 nM.
With `CCN(c1nc(OC[C@@]23CCCN2C[C@H](F)C3)nc2c(F)c(-c3ccc(F)c4sc(N)c(C#N)c34)c(C(F)(F)F)cc12)[C@H]1CCN(C(=O)N(C)C)C1` [Compound 395] the IC50 was < 100 nM.

What follows are compounds tested on SW620 cells (KRAS G12V) (assay: Cell-based pERK HTRF assay in SW620 cell (Biological Example 4)). Conditions: Homo sapiens, SW-620, SW620 (KRAS G12V) cells, pERK HTRF.
Procedure, shortened: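 In SW620 cells grown in RPMI with 10% FBS, a 4 h compound treatment (0.25% DMSO, 9-point curve from 1 μM) preceded lysis. Phospho-ERK levels were then read by time-resolved FRET at 615 nm emission.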
`N#Cc1c(N)sc2c(F)ccc(-c3c(C(F)(F)F)cc4c(N5CC6CC(C5)O6)nc(OC[C@@]56CCCN5C[C@]5(CC5(F)F)C6)nc4c3F)c12` [Compound 365] was tested, and the IC50 was < 100 nM.
`N#Cc1c(N)sc2c(F)ccc(-c3c(C(F)(F)F)cc4c(N5CC6CC(C5)O6)nc(OC[C@@]56CCCN5C[C@@]5(CC5(F)F)C6)nc4c3F)c12` [Compound 366] was tested, and the IC50 was < 100 nM.
In the case of `N#Cc1c(N)sc2c(F)ccc(-c3c(C(F)(F)F)cc4c(N5C6COCC5CC(O)C6)nc(OC[C@@]56CCCN5C[C@H](F)C6)nc4c3F)c12` (stereo partly drawn) [Compound 374], the IC50 is reported as < 100 nM.
For `N#Cc1c(N)sc2c(F)ccc(-c3c(C(F)(F)F)cc4c(N5[C@@H]6CO[C@H]7C6OC[C@H]75)nc(OC[C@@]56CCCN5C[C@H](F)C6)nc4c3F)c12` [Compound 382], the IC50 was < 100 nM.
For `N#Cc1cc2n(n1)CCN(c1nc(OC[C@@]34CCCN3C[C@H](F)C4)nc3c(F)c(-c4ccc(F)c5sc(N)c(C#N)c45)c(C(F)(F)F)cc13)C2` [Compound 393], the IC50 was < 100 nM.
For `CCN(c1nc(OC[C@@]23CCCN2C[C@H](F)C3)nc2c(F)c(-c3ccc(F)c4sc(N)c(C#N)c34)c(C(F)(F)F)cc12)[C@H]1CCN(C(=O)N(C)C)C1` [Compound 395], the IC50 was < 100 nM.

These compounds were tested on GP2d cells (KRAS G12D) (assay: Cell-based pERK HTRF assay in GP2d cell (Biological Example 2)). Conditions: GP2d, GP2d (KRAS G12D) cells, pERK HTRF.
Procedure, shortened: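 Cells grown in DMEM with 10% FBS were exposed to compound for 60 min at 0.25% DMSO, using a 9-point half-log series starting at 1 μM or 100 nM. Lysates were then mixed with d2 and Eu cryptate antibodies for 4–24 h at room temperature, and pERK was read by HTRF.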
With `N#Cc1c(N)sc2c(F)ccc(-c3c(C(F)(F)F)cc4c(N5CC6CC(C5)O6)nc(OC[C@@]56CCCN5C[C@]5(CC5(F)F)C6)nc4c3F)c12` [Compound 365] the IC50 was < 100 nM.
In the case of `N#Cc1c(N)sc2c(F)ccc(-c3c(C(F)(F)F)cc4c(N5CC6CC(C5)O6)nc(OC[C@@]56CCCN5C[C@@]5(CC5(F)F)C6)nc4c3F)c12` [Compound 366], the IC50 is reported as < 100 nM.
With `N#Cc1c(N)sc2c(F)ccc(-c3c(C(F)(F)F)cc4c(N5C6COCC5CC(O)C6)nc(OC[C@@]56CCCN5C[C@H](F)C6)nc4c3F)c12` (stereo partly drawn) [Compound 374] the IC50 was < 100 nM.
With `N#Cc1c(N)sc2c(F)ccc(-c3c(C(F)(F)F)cc4c(N5[C@@H]6CO[C@H]7C6OC[C@H]75)nc(OC[C@@]56CCCN5C[C@H](F)C6)nc4c3F)c12` [Compound 382] the IC50 was < 100 nM.
`N#Cc1cc2n(n1)CCN(c1nc(OC[C@@]34CCCN3C[C@H](F)C4)nc3c(F)c(-c4ccc(F)c5sc(N)c(C#N)c45)c(C(F)(F)F)cc13)C2` [Compound 393] was tested, and the IC50 was < 100 nM.
In the case of `CCN(c1nc(OC[C@@]23CCCN2C[C@H](F)C3)nc2c(F)c(-c3ccc(F)c4sc(N)c(C#N)c34)c(C(F)(F)F)cc12)[C@H]1CCN(C(=O)N(C)C)C1` [Compound 395], the IC50 is reported as < 100 nM.

These compounds were tested against T3, Avi-KRAS WT (1-169) GppNHp/RAF1 RBD-3xFLAG (52-151) (Homo sapiens, UniProt P01116) (assay: Raf1-KRAS WT-GppNHP disruption HTRF assay (Biological Example 1)). Conditions: KRAS WT-GppNHp/RAF1 RBD HTRF.
T3 construct: Avi-KRAS WT (1-169)
T3 sequence (P01116 1-169 isoform P01116-2): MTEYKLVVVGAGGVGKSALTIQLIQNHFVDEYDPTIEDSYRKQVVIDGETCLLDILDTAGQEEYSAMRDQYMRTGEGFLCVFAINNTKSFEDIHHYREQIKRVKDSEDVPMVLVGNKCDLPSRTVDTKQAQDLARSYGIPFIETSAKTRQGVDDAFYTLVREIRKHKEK
Assay type: binding
Procedure, shortened: as §1
`N#Cc1c(N)sc2c(F)ccc(-c3c(C(F)(F)F)cc4c(N5CC6CC(C5)O6)nc(OC[C@@]56CCCN5C[C@]5(CC5(F)F)C6)nc4c3F)c12` [Compound 365] was tested, and the IC50 was 100 to 1000 nM.
`N#Cc1c(N)sc2c(F)ccc(-c3c(C(F)(F)F)cc4c(N5CC6CC(C5)O6)nc(OC[C@@]56CCCN5C[C@@]5(CC5(F)F)C6)nc4c3F)c12` [Compound 366] was tested, and the IC50 was 100 to 1000 nM.
`N#Cc1c(N)sc2c(F)ccc(-c3c(C(F)(F)F)cc4c(N5C6COCC5CC(O)C6)nc(OC[C@@]56CCCN5C[C@H](F)C6)nc4c3F)c12` (stereo partly drawn) [Compound 374] showed an IC50 of 100 to 1000 nM.
`N#Cc1c(N)sc2c(F)ccc(-c3c(C(F)(F)F)cc4c(N5[C@@H]6CO[C@H]7C6OC[C@H]75)nc(OC[C@@]56CCCN5C[C@H](F)C6)nc4c3F)c12` [Compound 382] was tested, and the IC50 was 100 to 1000 nM.
With `N#Cc1cc2n(n1)CCN(c1nc(OC[C@@]34CCCN3C[C@H](F)C4)nc3c(F)c(-c4ccc(F)c5sc(N)c(C#N)c45)c(C(F)(F)F)cc13)C2` [Compound 393] the IC50 was > 10000 nM.
With `CCN(c1nc(OC[C@@]23CCCN2C[C@H](F)C3)nc2c(F)c(-c3ccc(F)c4sc(N)c(C#N)c34)c(C(F)(F)F)cc12)[C@H]1CCN(C(=O)N(C)C)C1` [Compound 395] the IC50 was < 100 nM.

Each compound was assayed against T4, Avi-KRAS G12V (1-169) GppNHp/RAF1 RBD-3xFLAG (52-151) (Homo sapiens, UniProt P01116, G12V) (assay: Raf1-KRAS G12V-GppNHP disruption HTRF assay (Biological Example 1)). Conditions: KRAS G12V-GppNHp/RAF1 RBD HTRF.
T4 construct: Avi-KRAS G12V (1-169)
T4 sequence (P01116 1-169 isoform P01116-2 G12V): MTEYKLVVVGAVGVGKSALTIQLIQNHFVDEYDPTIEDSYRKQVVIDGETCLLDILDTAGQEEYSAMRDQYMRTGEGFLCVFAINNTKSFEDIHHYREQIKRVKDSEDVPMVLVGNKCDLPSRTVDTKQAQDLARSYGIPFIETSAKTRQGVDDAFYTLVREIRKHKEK
Assay type: binding
Procedure, shortened: as §1
`N#Cc1c(N)sc2c(F)ccc(-c3c(C(F)(F)F)cc4c(N5CC6CC(C5)O6)nc(OC[C@@]56CCCN5C[C@]5(CC5(F)F)C6)nc4c3F)c12` [Compound 365] was tested, and the IC50 was 100 to 1000 nM.
`N#Cc1c(N)sc2c(F)ccc(-c3c(C(F)(F)F)cc4c(N5CC6CC(C5)O6)nc(OC[C@@]56CCCN5C[C@@]5(CC5(F)F)C6)nc4c3F)c12` [Compound 366] was tested, and the IC50 was 1000 to 10000 nM.
Work on `N#Cc1c(N)sc2c(F)ccc(-c3c(C(F)(F)F)cc4c(N5C6COCC5CC(O)C6)nc(OC[C@@]56CCCN5C[C@H](F)C6)nc4c3F)c12` (stereo partly drawn) [Compound 374] yielded an IC50 of 1000 to 10000 nM.
`N#Cc1c(N)sc2c(F)ccc(-c3c(C(F)(F)F)cc4c(N5[C@@H]6CO[C@H]7C6OC[C@H]75)nc(OC[C@@]56CCCN5C[C@H](F)C6)nc4c3F)c12` [Compound 382] showed an IC50 of 1000 to 10000 nM.
For `N#Cc1cc2n(n1)CCN(c1nc(OC[C@@]34CCCN3C[C@H](F)C4)nc3c(F)c(-c4ccc(F)c5sc(N)c(C#N)c45)c(C(F)(F)F)cc13)C2` [Compound 393], the IC50 was > 10000 nM.
For `CCN(c1nc(OC[C@@]23CCCN2C[C@H](F)C3)nc2c(F)c(-c3ccc(F)c4sc(N)c(C#N)c34)c(C(F)(F)F)cc12)[C@H]1CCN(C(=O)N(C)C)C1` [Compound 395], the IC50 was < 100 nM.
